Reference: the supplement of paper PMC12076712

Tests used:
Assay in all cases: pIC50, kinobeads binding competition
[1] = target: UniProt Q05655
In short: (§1)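 Fold changes relative to vehicle, from biological duplicates, were fitted with logistic dose-response models in the R drc package to give pIC50. These fold changes came from TMT10 LC-MS/MS quantification of digested Kinobeads-bound proteins. Compound was applied at nine concentrations (top 30 μM) either to live Jurkat cells in 1:4 steps for 60 min at 37 °C before lysis, or to Jurkat lysate or a 1:1:1:1 HEK293/K-562/HepG2/placenta lysate mix in 1:5 steps for 60 min at 4 °C.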

[2] = target: NEK6 (UniProt Q9HC98); settings: cell material: Lysate mix
In short: as §1

[3] = target: PIM2 (UniProt Q9P1W9)
In short: as §1

[4] = target: UniProt P48730
In short: as §1

[5] = target: T1, BMPR2 (UniProt Q13873)
T1 sequence (whole entry): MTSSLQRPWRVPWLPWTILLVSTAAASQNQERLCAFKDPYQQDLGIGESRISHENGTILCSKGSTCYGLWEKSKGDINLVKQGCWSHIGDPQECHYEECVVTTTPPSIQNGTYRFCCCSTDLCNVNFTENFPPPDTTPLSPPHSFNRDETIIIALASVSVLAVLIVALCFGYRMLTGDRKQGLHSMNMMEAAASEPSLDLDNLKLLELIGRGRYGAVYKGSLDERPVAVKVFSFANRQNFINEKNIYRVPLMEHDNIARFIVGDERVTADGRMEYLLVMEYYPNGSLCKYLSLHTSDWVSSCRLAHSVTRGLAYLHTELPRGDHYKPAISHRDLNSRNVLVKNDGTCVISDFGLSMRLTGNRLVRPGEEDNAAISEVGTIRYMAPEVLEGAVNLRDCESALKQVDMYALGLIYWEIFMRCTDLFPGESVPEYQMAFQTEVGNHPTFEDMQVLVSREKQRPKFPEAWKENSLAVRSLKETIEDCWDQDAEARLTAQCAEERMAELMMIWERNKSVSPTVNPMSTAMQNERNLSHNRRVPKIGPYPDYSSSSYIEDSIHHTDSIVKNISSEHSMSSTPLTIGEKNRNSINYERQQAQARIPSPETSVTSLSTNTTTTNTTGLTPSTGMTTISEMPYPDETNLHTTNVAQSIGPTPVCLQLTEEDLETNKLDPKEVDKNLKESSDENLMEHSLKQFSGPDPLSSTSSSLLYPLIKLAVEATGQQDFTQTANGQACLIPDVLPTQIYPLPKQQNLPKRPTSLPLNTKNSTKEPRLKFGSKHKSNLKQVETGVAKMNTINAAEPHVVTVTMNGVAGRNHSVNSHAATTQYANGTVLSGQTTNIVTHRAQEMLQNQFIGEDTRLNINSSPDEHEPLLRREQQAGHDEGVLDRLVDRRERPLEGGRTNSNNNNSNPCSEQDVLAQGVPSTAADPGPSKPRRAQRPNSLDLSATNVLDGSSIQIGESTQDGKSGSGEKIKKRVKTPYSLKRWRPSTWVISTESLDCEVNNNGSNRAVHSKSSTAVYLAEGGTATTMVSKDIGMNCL
In short: as §1

[6] = target: WEE1 (UniProt P30291)
In short: as §1

[7] = target: UniProt Q9BVS4
In short: as §1

[8] = target: EIF2AK4 (UniProt Q9P2K8)
In short: as §1

[9] = target: T2, UniProt Q13188
T2 sequence (whole entry): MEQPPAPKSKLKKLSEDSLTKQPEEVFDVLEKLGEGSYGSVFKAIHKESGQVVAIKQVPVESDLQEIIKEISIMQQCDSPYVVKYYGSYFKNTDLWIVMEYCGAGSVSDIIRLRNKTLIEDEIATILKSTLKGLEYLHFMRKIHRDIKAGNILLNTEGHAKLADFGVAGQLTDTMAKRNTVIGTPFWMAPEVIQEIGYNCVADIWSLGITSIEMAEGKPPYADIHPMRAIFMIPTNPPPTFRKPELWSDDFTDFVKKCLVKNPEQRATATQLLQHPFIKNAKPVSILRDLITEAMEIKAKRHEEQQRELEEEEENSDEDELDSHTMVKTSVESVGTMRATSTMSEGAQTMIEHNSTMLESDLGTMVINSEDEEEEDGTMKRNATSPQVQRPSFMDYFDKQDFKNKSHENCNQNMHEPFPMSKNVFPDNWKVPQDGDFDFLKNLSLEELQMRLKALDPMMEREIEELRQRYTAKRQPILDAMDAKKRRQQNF
In short: as §1

Sequence of EIF2AK4 (Q9P2K8 whole entry): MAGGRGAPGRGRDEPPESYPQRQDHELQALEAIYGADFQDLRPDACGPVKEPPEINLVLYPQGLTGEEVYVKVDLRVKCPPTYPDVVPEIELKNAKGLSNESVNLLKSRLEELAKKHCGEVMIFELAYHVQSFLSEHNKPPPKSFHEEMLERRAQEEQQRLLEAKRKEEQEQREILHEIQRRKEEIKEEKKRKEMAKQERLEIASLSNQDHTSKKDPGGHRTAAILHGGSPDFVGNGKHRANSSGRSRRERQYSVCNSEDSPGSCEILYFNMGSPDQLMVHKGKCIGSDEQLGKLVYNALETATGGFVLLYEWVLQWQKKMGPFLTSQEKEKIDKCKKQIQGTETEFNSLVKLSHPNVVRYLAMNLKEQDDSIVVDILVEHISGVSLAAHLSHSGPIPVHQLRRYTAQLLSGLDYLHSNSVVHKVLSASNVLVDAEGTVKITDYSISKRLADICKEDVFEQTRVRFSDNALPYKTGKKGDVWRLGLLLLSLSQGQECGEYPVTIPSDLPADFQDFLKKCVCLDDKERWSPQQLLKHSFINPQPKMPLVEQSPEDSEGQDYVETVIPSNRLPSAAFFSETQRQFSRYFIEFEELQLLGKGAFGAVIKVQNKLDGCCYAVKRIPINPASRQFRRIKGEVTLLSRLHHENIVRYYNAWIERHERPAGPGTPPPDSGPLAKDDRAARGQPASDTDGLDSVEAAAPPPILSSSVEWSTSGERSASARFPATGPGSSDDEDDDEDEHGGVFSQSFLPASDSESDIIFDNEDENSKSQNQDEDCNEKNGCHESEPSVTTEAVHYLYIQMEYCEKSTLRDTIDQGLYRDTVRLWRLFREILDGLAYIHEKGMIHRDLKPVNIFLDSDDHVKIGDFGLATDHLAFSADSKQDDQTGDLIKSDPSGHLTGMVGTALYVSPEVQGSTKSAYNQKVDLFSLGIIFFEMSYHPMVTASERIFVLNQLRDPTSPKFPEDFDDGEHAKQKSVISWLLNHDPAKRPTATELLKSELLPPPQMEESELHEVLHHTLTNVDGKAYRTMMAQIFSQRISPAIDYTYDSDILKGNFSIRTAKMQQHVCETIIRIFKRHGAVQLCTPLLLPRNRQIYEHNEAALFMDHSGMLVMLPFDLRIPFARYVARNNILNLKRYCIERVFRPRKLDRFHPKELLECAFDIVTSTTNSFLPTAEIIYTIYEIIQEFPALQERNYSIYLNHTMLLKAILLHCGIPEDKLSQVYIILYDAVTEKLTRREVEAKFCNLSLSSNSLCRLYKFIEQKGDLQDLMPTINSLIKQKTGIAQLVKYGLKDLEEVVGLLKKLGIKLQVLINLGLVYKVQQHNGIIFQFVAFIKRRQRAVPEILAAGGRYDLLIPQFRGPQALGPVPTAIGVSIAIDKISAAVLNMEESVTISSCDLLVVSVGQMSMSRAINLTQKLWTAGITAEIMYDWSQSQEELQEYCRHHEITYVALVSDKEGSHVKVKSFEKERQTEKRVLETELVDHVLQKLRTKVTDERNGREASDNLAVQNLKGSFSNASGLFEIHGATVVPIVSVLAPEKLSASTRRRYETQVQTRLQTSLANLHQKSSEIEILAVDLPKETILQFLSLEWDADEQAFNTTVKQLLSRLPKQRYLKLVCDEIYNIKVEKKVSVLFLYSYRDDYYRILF
Sequence of UniProt Q05655 (Q05655 whole entry, looked up): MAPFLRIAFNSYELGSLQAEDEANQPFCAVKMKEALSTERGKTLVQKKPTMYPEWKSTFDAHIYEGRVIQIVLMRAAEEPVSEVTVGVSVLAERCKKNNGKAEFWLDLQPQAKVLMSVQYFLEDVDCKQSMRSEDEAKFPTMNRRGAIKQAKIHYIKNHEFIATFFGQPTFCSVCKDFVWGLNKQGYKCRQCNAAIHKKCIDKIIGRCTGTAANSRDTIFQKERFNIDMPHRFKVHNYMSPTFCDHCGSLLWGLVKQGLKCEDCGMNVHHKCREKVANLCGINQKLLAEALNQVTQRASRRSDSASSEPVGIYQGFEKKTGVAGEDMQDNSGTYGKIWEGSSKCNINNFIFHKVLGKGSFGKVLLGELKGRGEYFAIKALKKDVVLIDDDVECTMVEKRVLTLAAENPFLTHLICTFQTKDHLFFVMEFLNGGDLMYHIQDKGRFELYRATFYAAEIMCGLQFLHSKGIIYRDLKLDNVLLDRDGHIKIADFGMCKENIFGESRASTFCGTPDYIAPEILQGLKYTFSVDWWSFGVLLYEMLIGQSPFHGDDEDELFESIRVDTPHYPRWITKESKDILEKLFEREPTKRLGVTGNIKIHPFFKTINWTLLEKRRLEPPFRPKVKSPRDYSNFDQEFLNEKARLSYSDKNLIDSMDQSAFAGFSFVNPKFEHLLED
Sequence of UniProt P48730 (P48730 whole entry, looked up): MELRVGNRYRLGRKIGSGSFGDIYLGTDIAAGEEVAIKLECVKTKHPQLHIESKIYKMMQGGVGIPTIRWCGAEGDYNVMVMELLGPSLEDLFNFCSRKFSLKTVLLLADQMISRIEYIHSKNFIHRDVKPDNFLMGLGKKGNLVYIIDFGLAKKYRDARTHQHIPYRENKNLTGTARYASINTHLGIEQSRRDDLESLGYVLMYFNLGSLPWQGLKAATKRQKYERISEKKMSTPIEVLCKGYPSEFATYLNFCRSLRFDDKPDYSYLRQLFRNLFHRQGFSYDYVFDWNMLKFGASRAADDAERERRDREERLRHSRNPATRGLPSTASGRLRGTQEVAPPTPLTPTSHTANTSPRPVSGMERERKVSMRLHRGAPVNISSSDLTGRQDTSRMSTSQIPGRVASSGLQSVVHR
Sequence of PIM2 (Q9P1W9 whole entry, looked up): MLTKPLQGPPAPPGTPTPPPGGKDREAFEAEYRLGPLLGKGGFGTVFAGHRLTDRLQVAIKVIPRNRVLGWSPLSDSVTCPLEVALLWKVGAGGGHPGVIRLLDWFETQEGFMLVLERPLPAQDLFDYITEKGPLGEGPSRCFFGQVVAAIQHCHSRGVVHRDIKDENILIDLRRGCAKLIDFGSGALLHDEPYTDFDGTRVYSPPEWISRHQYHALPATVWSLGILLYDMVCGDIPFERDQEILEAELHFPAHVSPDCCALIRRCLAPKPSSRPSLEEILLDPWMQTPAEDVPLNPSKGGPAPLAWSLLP
Sequence of WEE1 (P30291 whole entry, looked up): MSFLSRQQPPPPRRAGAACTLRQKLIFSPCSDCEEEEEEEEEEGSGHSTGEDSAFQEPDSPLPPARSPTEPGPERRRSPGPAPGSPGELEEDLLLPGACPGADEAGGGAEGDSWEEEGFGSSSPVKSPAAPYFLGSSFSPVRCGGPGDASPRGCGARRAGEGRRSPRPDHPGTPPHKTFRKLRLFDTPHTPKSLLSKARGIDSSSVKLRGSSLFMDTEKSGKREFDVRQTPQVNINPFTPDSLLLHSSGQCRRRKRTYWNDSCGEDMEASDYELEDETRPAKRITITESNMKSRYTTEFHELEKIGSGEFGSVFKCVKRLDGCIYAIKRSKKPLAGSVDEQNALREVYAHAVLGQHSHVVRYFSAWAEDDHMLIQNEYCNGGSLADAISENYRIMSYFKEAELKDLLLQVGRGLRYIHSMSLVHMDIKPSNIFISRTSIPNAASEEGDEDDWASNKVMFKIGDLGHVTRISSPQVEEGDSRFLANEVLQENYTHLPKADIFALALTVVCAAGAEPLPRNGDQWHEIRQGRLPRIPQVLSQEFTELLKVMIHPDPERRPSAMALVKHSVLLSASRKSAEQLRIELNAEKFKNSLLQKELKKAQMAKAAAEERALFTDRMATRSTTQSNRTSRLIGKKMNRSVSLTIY
Sequence of NEK6 (Q9HC98 whole entry): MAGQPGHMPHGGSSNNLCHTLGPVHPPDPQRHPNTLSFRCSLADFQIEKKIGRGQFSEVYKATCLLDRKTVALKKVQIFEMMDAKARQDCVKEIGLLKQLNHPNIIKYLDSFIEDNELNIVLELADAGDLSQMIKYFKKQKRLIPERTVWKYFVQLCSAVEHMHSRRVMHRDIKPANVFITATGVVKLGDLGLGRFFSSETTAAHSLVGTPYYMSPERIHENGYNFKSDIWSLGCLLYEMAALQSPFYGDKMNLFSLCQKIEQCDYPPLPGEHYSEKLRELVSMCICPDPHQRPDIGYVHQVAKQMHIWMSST
Sequence of UniProt Q9BVS4 (Q9BVS4 whole entry, looked up): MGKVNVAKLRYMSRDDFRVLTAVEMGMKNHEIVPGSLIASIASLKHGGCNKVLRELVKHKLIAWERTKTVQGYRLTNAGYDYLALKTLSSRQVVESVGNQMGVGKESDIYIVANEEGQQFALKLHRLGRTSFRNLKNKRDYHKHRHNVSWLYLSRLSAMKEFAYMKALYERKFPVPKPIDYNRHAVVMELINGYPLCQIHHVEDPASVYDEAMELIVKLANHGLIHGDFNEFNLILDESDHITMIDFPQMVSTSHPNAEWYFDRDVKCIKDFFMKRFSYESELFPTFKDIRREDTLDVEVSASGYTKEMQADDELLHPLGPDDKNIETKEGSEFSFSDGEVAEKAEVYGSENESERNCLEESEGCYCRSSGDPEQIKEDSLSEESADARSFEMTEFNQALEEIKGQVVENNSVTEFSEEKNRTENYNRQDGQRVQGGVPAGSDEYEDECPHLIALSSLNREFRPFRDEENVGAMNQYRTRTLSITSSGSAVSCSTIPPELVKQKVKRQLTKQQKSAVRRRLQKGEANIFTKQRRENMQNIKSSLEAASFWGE

SMILES	pIC50 ([1]; cell material: Lysate mix)	pIC50 [2]	pIC50 ([3]; cell material: Lysate mix)	pIC50 ([4]; cell material: Lysate mix)	pIC50 ([5]; cell material: Lysate mix)	pIC50 ([6]; cell material: Lysate mix)	pIC50 ([7]; cell material: Lysate mix)	pIC50 ([8]; cell material: Lysate mix)	pIC50 ([9]; cell material: Lysate mix)	pIC50 ([4]; cell material: Jurkat cells)	pIC50 ([1]; cell material: Jurkat cells)	pIC50 ([1]; cell material: Jurkat lysate)	pIC50 ([3]; cell material: Jurkat lysate)	pIC50 ([4]; cell material: Jurkat lysate)	pIC50 ([5]; cell material: Jurkat cells)	pIC50 ([5]; cell material: Jurkat lysate)	pIC50 ([6]; cell material: Jurkat cells)	pIC50 ([6]; cell material: Jurkat lysate)	pIC50 ([7]; cell material: Jurkat cells)	pIC50 ([7]; cell material: Jurkat lysate)	pIC50 ([8]; cell material: Jurkat cells)	pIC50 ([8]; cell material: Jurkat lysate)	pIC50 ([9]; cell material: Jurkat cells)	pIC50 ([9]; cell material: Jurkat lysate)
C#CCNC(=O)c1cc(Nc2cc(C3CC3)[nH]n2)nc(N2CCN(Cc3ccc(S(=O)(=O)F)cc3)CC2)n1	< 4.52	< 4.52	< 4.52	< 4.52	< 4.52	< 4.52	< 4.52	5.44	6.27		5.53	< 4.52	< 4.52	< 4.52	5.72	< 4.52	5.62	< 4.52	5.12	< 4.52	6.08	4.63	6.3	5.64
O=C(NCCNC(=O)c1cc(Nc2cc(C3CC3)[nH]n2)nc(N2CCN(Cc3ccc(S(=O)(=O)F)cc3)CC2)n1)OC1CC/C=C/CCC1 (stereo unspecified)	< 4.52	< 4.52	< 4.52	< 4.52	< 4.52	< 4.52	< 4.52	< 4.52	< 4.52	< 4.52	5.19	< 4.52	< 4.52	< 4.52	< 4.52	< 4.52		< 4.52	< 4.52	< 4.52	5.62	< 4.52	5.6	
CCNC(=O)c1cc(Nc2cc(C3CC3)[nH]n2)nc(N2CCN(Cc3ccc(S(=O)(=O)F)cc3)CC2)n1	< 4.52	< 4.52	< 4.52	< 4.52	< 4.52	< 4.52	< 4.52	5.35	5.94															
Cc1cc(Nc2cc(C(=O)NCCNC(=O)OC3CC/C=C/CCC3)nc(N3CCN(Cc4ccc(S(=O)(=O)F)cc4)CC3)n2)n[nH]1 (stereo unspecified)	< 4.52	< 4.52	< 4.52	< 4.52	< 4.52	< 4.52	< 4.52	< 4.52	< 4.52															

The next lines start with results.

pIC50 ([1]; cell material: Lysate mix)	pIC50 [2]	pIC50 ([3]; cell material: Lysate mix)	pIC50 ([4]; cell material: Lysate mix)	pIC50 ([5]; cell material: Lysate mix)	pIC50 ([6]; cell material: Lysate mix)	pIC50 ([7]; cell material: Lysate mix)	pIC50 ([8]; cell material: Lysate mix)	pIC50 ([9]; cell material: Lysate mix)	pIC50 ([4]; cell material: Jurkat cells)	SMILES	pIC50 ([1]; cell material: Jurkat cells)	pIC50 ([1]; cell material: Jurkat lysate)	pIC50 ([3]; cell material: Jurkat lysate)	pIC50 ([4]; cell material: Jurkat lysate)	pIC50 ([5]; cell material: Jurkat cells)	pIC50 ([5]; cell material: Jurkat lysate)	pIC50 ([6]; cell material: Jurkat cells)	pIC50 ([6]; cell material: Jurkat lysate)	pIC50 ([7]; cell material: Jurkat cells)	pIC50 ([7]; cell material: Jurkat lysate)	pIC50 ([8]; cell material: Jurkat cells)	pIC50 ([8]; cell material: Jurkat lysate)	pIC50 ([9]; cell material: Jurkat cells)	pIC50 ([9]; cell material: Jurkat lysate)
< 4.52	< 4.52	< 4.52	< 4.52	< 4.52	< 4.52	< 4.52	5.15	5.6		C#CCNC(=O)c1cc(Nc2cc(C)[nH]n2)nc(N2CCN(Cc3ccc(S(=O)(=O)F)cc3)CC2)n1														
< 4.52	< 4.52	< 4.52	< 4.52	< 4.52	< 4.52	< 4.52	4.98	5.64		CCNC(=O)c1cc(Nc2cc(C)[nH]n2)nc(N2CCN(Cc3ccc(S(=O)(=O)F)cc3)CC2)n1														
